Experimental data taken from patent US11807644B2 (PMV Pharmaceuticals, Inc., priority 2020, dated 2023).

Molecular target: T1, recombinant His-tag Y220C p53 DBD protein (Homo sapiens, UniProt P04637, Y220C)
T1 construct: recombinant His-tag Y220C p53 DBD protein (amino acids #˜94-312)
Test: In vitro DNA binding activity assay (TR-FRET): binding of His-tag Y220C p53 DBD to biotin-labeled consensus DNA
Type: biochemical
Conditions: SC150 = concentration to increase DNA binding by […], His-tag Y220C p53 DBD, biotin-labeled consensus DNA

Row | Y220C SC150 (μM) | Structure (SMILES)
1 | * (* = 0 μM ≤ SC150 < 0.1 μM) | CN1CC[C@@H](F)[C@@H](Nc2cccc3c2cc(-c2noc(CNC(=O)c4ccn(C5(C)CCOCC5)c4)n2)n3CC(F)(F)F)C1 [Compound 419B, N-{[3-(4-{[(3S,4R)-4-fluoro-1-methylpiperidin-3-yl]amino}-1-(2,2,2-trifluoroethyl)-1H-indol-2-yl)-1,2,4-oxadiazol-5-yl]methyl}-1-(4-methyloxan-4-yl)-1H-pyrrole-3-carboxamide]
2 | * (* = 0 μM ≤ SC150 < 0.1 μM) | CC1(n2ccc(C(=O)NCc3nc(-c4cc5c(N[C@@H]6CNCC[C@@H]6F)cccc5n4CC(F)(F)F)no3)c2)CCOCC1 [Compound 420B, N-{[3-(4-{[(3R,4S)-4-fluoropiperidin-3-yl]amino}-1-(2,2,2-trifluoroethyl)-1H-indol-2-yl)-1,2,4-oxadiazol-5-yl]methyl}-1-(4-methyloxan-4-yl)-1H-pyrrole-3-carboxamide]
3 | * (* = 0 μM ≤ SC150 < 0.1 μM) | CC1(n2ccc(C(=O)NCc3nc(-c4cc5c(N[C@H]6CNCC[C@H]6F)cccc5n4CC(F)(F)F)no3)c2)CCOCC1 [Compound 421B, N-{[3-(4-{[(3S,4R)-4-fluoropiperidin-3-yl]amino}-1-(2,2,2-trifluoroethyl)-1H-indol-2-yl)-1,2,4-oxadiazol-5-yl]methyl}-1-(4-methyloxan-4-yl)-1H-pyrrole-3-carboxamide]
4 | * (* = 0 μM ≤ SC150 < 0.1 μM) | CN1CC[C@@H](Nc2cccc3c2cc(-c2noc(CNC(=O)c4ccc(C(C)(C)C)s4)n2)n3CC(F)(F)F)[C@@H](F)C1 [Compound 422B, 5-tert-butyl-N-[[3-[4-[[(3S,4R)-3-fluoro-1-methyl-4-piperidyl]amino]-1-(2,2,2-trifluoroethyl)indol-2-yl]-1,2,4-oxadiazol-5-yl]methyl]thiophene-2-carboxamide]
5 | * (* = 0 μM ≤ SC150 < 0.1 μM) | CN1CC[C@@H](Nc2cccc3c2cc(-c2noc(CNC(=O)c4ccn(C(C)(C)C5CC5)c4)n2)n3CC(F)(F)F)[C@@H](F)C1 [Compound 423B, 1-(2-cyclopropylpropan-2-yl)-N-{[3-(4-{[(3S,4R)-3-fluoro-1-methylpiperidin-4-yl]amino}-1-(2,2,2-trifluoroethyl)-1H-indol-2-yl)-1,2,4-oxadiazol-5-yl]methyl}-1H-pyrrole-3-carboxamide]
6 | * (* = 0 μM ≤ SC150 < 0.1 μM) | CN1CC[C@@H](Nc2cccc3c2cc(-c2noc(CNC(=O)c4ccc(C(C)(C)O)s4)n2)n3CC(F)(F)F)[C@@H](F)C1 [Compound 424B, N-[[3-[4-[[(3S,4R)-3-fluoro-1-methyl-4-piperidyl]amino]-1-(2,2,2-trifluoroethyl)indol-2-yl]-1,2,4-oxadiazol-5-yl]methyl]-5-(1-hydroxy-1-methyl-ethyl)thiophene-2-carboxamide]
7 | * (* = 0 μM ≤ SC150 < 0.1 μM) | CN1CC[C@@H](Nc2cccc3c2cc(-c2noc(CNC(=O)c4csc(C(C)(C)O)c4)n2)n3CC(F)(F)F)[C@@H](F)C1 [Compound 425B, N-{[3-(4-{[(3S,4R)-3-fluoro-1-methylpiperidin-4-yl]amino}-1-(2,2,2-trifluoroethyl)-1H-indol-2-yl)-1,2,4-oxadiazol-5-yl]methyl}-5-(2-hydroxypropan-2-yl)thiophene-3-carboxamide]
8 | * (* = 0 μM ≤ SC150 < 0.1 μM) | COCC1(n2ccc(C(=O)NCc3nc(-c4cc5c(N[C@@H]6CCN(C)C[C@@H]6F)cccc5n4CC(F)(F)F)no3)c2)CC1 [Compound 426B, N-{[3-(4-{[(3S,4R)-3-fluoro-1-methylpiperidin-4-yl]amino}-1-(2,2,2-trifluoroethyl)-1H-indol-2-yl)-1,2,4-oxadiazol-5-yl]methyl}-1-[1-(methoxymethyl)cyclopropyl]-1H-pyrrole-3-carboxamide]
9 | * (* = 0 μM ≤ SC150 < 0.1 μM) | CCC(C)(C)n1ccc(C(=O)NCc2nc(-c3cc4c(N[C@@H]5CCN(C)C[C@@H]5F)cccc4n3CC(F)(F)F)no2)c1 [Compound 427B, N-{[3-(4-{[(3S,4R)-3-fluoro-1-methylpiperidin-4-yl]amino}-1-(2,2,2-trifluoroethyl)-1H-indol-2-yl)-1,2,4-oxadiazol-5-yl]methyl}-1-(2-methylbutan-2-yl)-1H-pyrrole-3-carboxamide]
10 | * (* = 0 μM ≤ SC150 < 0.1 μM) | CN1CC[C@@H](Nc2cccc3c2cc(-c2noc(CNC(=O)c4ccn(C5(C)CC5)c4)n2)n3CC(F)(F)F)[C@@H](F)C1 [Compound 428B, N-{[3-(4-{[(3S,4R)-3-fluoro-1-methylpiperidin-4-yl]amino}-1-(2,2,2-trifluoroethyl)-1H-indol-2-yl)-1,2,4-oxadiazol-5-yl]methyl}-1-(1-methylcyclopropyl)-1H-pyrrole-3-carboxamide]
11 | * (* = 0 μM ≤ SC150 < 0.1 μM) | CN1CC[C@@H](Nc2cccc3c2cc(-c2noc(CNC(=O)c4csc(N)c4)n2)n3CC(F)(F)F)[C@@H](F)C1 [Compound 429B, 5-amino-N-{[3-(4-{[(3S,4R)-3-fluoro-1-methylpiperidin-4-yl]amino}-1-(2,2,2-trifluoroethyl)-1H-indol-2-yl)-1,2,4-oxadiazol-5-yl]methyl}thiophene-3-carboxamide]
12 | * (* = 0 μM ≤ SC150 < 0.1 μM) | CC(C)c1nc(C(=O)NCc2nc(-c3cc4c(N[C@@H]5CCN(C)C[C@@H]5F)cccc4n3CC(F)(F)F)no2)co1 [Compound 430B, N-{[3-(4-{[(3S,4R)-3-fluoro-1-methylpiperidin-4-yl]amino}-1-(2,2,2-trifluoroethyl)-1H-indol-2-yl)-1,2,4-oxadiazol-5-yl]methyl}-2-(propan-2-yl)-1,3-oxazole-4-carboxamide]
13 | * (* = 0 μM ≤ SC150 < 0.1 μM) | CC(C)c1ncc(C(=O)NCc2nc(-c3cc4c(N[C@@H]5CCN(C)C[C@@H]5F)cccc4n3CC(F)(F)F)no2)s1 [Compound 431B, N-{[3-(4-{[(3S,4R)-3-fluoro-1-methylpiperidin-4-yl]amino}-1-(2,2,2-trifluoroethyl)-1H-indol-2-yl)-1,2,4-oxadiazol-5-yl]methyl}-2-(propan-2-yl)-1,3-thiazole-5-carboxamide]
14 | * (* = 0 μM ≤ SC150 < 0.1 μM) | CN1CC[C@@H](Nc2cccc3c2cc(-c2noc(CNC(=O)c4cnc(N(C)C)s4)n2)n3CC(F)(F)F)[C@@H](F)C1 [Compound 432B, 2-(dimethylamino)-N-{[3-(4-{[(3S,4R)-3-fluoro-1-methylpiperidin-4-yl]amino}-1-(2,2,2-trifluoroethyl)-1H-indol-2-yl)-1,2,4-oxadiazol-5-yl]methyl)-1,3-thiazole-5-carboxamide]
15 | * (* = 0 μM ≤ SC150 < 0.1 μM) | CC(C)c1nc(C(=O)NCc2nc(-c3cc4c(N[C@@H]5CCN(C)C[C@@H]5F)cccc4n3CC(F)(F)F)no2)cs1 [Compound 434B, N-{[3-(4-{[(3S,4R)-3-fluoro-1-methylpiperidin-4-yl]amino}-1-(2,2,2-trifluoroethyl)-1H-indol-2-yl)-1,2,4-oxadiazol-5-yl]methyl}-2-(propan-2-yl)-1,3-thiazole-4-carboxamide]
16 | * (* = 0 μM ≤ SC150 < 0.1 μM) | CN1CC[C@@H](Nc2cccc3c2cc(-c2noc(CNC(=O)c4csc(N(C)C)n4)n2)n3CC(F)(F)F)[C@@H](F)C1 [Compound 435B, 2-(dimethylamino)-N-{[3-(4-{[(3S,4R)-3-fluoro-1-methylpiperidin-4-yl]amino}-1-(2,2,2-trifluoroethyl)-1H-indol-2-yl)-1,2,4-oxadiazol-5-yl]methyl}-1,3-thiazole-4-carboxamide]
17 | * (* = 0 μM ≤ SC150 < 0.1 μM) | CN1CC[C@@H](Nc2cccc3c2cc(-c2noc(CNC(=O)c4csc(N5CCOCC5)c4)n2)n3CC(F)(F)F)[C@@H](F)C1 [Compound 436B, N-{[3-(4-{[(3S,4R)-3-fluoro-1-methylpiperidin-4-yl]amino}-1-(2,2,2-trifluoroethyl)-1H-indol-2-yl)-1,2,4-oxadiazol-5-yl]methyl}-5-(morpholin-4-yl)thiophene-3-carboxamide]
18 | * (* = 0 μM ≤ SC150 < 0.1 μM) | CN1CC[C@@H](Nc2cccc3c2cc(-c2noc(CNC(=O)c4cnc(C(C)(C)C)s4)n2)n3CC(F)(F)F)[C@@H](F)C1 [Compound 437B, 2-tert-butyl-N-{[3-(4-{[(3S,4R)-3-fluoro-1-methylpiperidin-4-yl]amino}-1-(2,2,2-trifluoroethyl)-1H-indol-2-yl)-1,2,4-oxadiazol-5-yl]methyl}-1,3-thiazole-5-carboxamide]
19 | * (* = 0 μM ≤ SC150 < 0.1 μM) | COC(C)(C)c1ccc(C(=O)NCc2nc(-c3cc4c(N[C@@H]5CCN(C)C[C@@H]5F)cccc4n3CC(F)(F)F)no2)s1 [Compound 439B, N-{[3-(4-{[(3S,4R)-3-fluoro-1-methylpiperidin-4-yl]amino}-1-(2,2,2-trifluoroethyl)-1H-indol-2-yl)-1,2,4-oxadiazol-5-yl]methyl}-5-(2-methoxypropan-2-yl)thiophene-2-carboxamide]

Row | Structure (SMILES) | Y220C SC150 (μM)
20 | CN1CC[C@@H](Nc2cccc3c2cc(-c2noc(CNC(=O)c4cn(C5(C)CCOCC5)cn4)n2)n3CC(F)(F)F)[C@@H](F)C1 [Compound 433B, N-{[3-(4-{[(3S,4R)-3-fluoro-1-methylpiperidin-4-yl]amino}-1-(2,2,2-trifluoroethyl)-1H-indol-2-yl)-1,2,4-oxadiazol-5-yl]methyl}-1-(4-methyloxan-4-yl)-1H-imidazole-4-carboxamide] | * (* = 0 μM ≤ SC150 < 0.1 μM)
21 | CN1CC[C@@H](Nc2cccc3c2cc(-c2noc(CNC(=O)c4csc(C(C)(C)C)n4)n2)n3CC(F)(F)F)[C@@H](F)C1 [Compound 438B, 2-tert-butyl-N-{[3-(4-{[(3S,4R)-3-fluoro-1-methylpiperidin-4-yl]amino}-1-(2,2,2-trifluoroethyl)-1H-indol-2-yl)-1,2,4-oxadiazol-5-yl]methyl}-1,3-thiazole-4-carboxamide] | * (* = 0 μM ≤ SC150 < 0.1 μM)
22 | CN1CC[C@@H](Nc2cccc3c2cc(-c2noc(CNC(=O)c4coc(C(C)(C)C)n4)n2)n3CC(F)(F)F)[C@@H](F)C1 [Compound 440B, 2-tert-butyl-N-{[3-(4-{[(3S,4R)-3-fluoro-1-methylpiperidin-4-yl]amino}-1-(2,2,2-trifluoroethyl)-1H-indol-2-yl)-1,2,4-oxadiazol-5-yl]methyl}-1,3-oxazole-4-carboxamide] | * (* = 0 μM ≤ SC150 < 0.1 μM)
